Series [1] has as its system MDCK-C7 cells. In words: Short-circuit current (SCC) ion transport response to ADH in MDCK-C7 monolayers in Ussing chambers. The format is cell-based, canine. As to conditions: for initial rapid transient SCC response to ADH: 18 hrs pre-incubation before ADH. As to the method:
The Madin-Darby canine kidney (MDCK) cell line expresses many characteristics of the renal collecting duct. The MDCK-C7 subclone forms a high-resistance, hormone-responsive model of the principal cells, which are found in distal sections of the renal tubule. The electrophysiological technique of short-circuit current measurement has been used to examine the response to antidiuretic hormone (ADH) in the MDCK-C7 clone.
The MDCK-C7cells were grown in a 37° C. humidified incubator with a 5% CO2 and […] gas mixture. Initially the cells were grown in 75 cm^2 flasks and fed with Minimal Media with Earle's salts, non-essential amino acids and L-glutamine (MEM; Gibco/BRL, Grand Island, N.Y., USA) supplemented with 10% fetal bovine serum (Sigma), 26 mM NaHCO3 and adjusted to pH 7.0. The confluent cells were subcultured by trypsinization and the cells were seeded (5.4×10^4 cell/cm^2) onto Nucleopore polycarbonate membranes forming the bottom of Transwell chambers (Costar, Cambridge, Mass., USA). The Transwell chambers were placed in specially designed tissue culture plates to form a two compartment system in which media are added to both apical and basolateral surfaces. The media were aspirated and replaced three times per week. The cells were used between passages 73 and 96.
Nucleopore filters (4.7 cm^2) containing confluent MDCK-C7 cells (10-16 days) were removed from the Transwell chambers and clamped between the halves of an Ussing chamber (World Precision Instruments, Sarasota, Fla.). Each half of the chamber contained a tapered fluid compartment with openings for voltage electrodes (close to the epithelial membrane) and current electrodes (at the opposite end of the chamber). The fluid chamber was water jacketed to maintain constant temperature (37° C.). The cells were bathed in serum-free MEM. The media were circulated in the chambers by means of a 5%CO2/O2 gas lift. […] Transepithelial resistance was calculated by applying a 2-mV pulse across the epithelium and measuring the resultant deflection in SCC. Data from cultures were used only if they maintained a resistance >1000 W cm^2. Transepithelial resistance (an indication of cellular viability) was monitored throughout the entire duration of each electrophysiological experiment by pulsing the tissues with a 2000 μV pulse every 200 seconds. Resistance values were calculated from the resulting current deflections using Ohm's law.
The cultures were placed in the Ussing chambers and incubated under short-circuited conditions until a steady baseline transport was achieved (0.5-1 h). In the experiments to characterize the ADH-induced ion transport phenomena, the cultures were pre-incubated with the inhibitors 30 minutes prior to the addition of ADH. In the experiments with GI262570X, compound was added 18 hrs. prior to the addition of ADH. ADH was added to the serosal bathing media; amiloride was added to the apical media 30 min after ADH to determine the portion of the transport due to flux through the amiloride-sensitive Na^+ channel. The concentrations of effectors used were: ADH, 0.1 IU/ml; amiloride, 30 μM; NPPB, 500 μM; verapamil, 25 μM, and GI262570X (concentration range from 1 nM -1 μM). Each experiment was performed using matched cultures grown in parallel. The data are presented as means±SE with n indicating the number of different experiments.

In series [2] the test system is MDCK-C7 cells. Nature of the series: Transepithelial resistance of MDCK-C7 monolayers (indication of cellular viability). The format is cell-based, canine. To be noted: at concentrations >10 μM; SCC response not measurable. As to the method:
Nucleopore filters (4.7 cm^2) containing confluent MDCK-C7 cells (10-16 days) were removed from the Transwell chambers and clamped between the halves of an Ussing chamber (World Precision Instruments, Sarasota, Fla.). Each half of the chamber contained a tapered fluid compartment with openings for voltage electrodes (close to the epithelial membrane) and current electrodes (at the opposite end of the chamber). The fluid chamber was water jacketed to maintain constant temperature (37° C.). The cells were bathed in serum-free MEM. The media were circulated in the chambers by means of a 5%CO2/O2 gas lift. The electrodes were connected to a voltage-clamp amplifier (Current Voltage Clamp; World Precision Instruments) for measurement of net ion flux as monitored under short-circuit conditions (SCC; short circuit current) [Ussing, 1951]. Transepithelial resistance was calculated by applying a 2-mV pulse across the epithelium and measuring the resultant deflection in SCC. Data from cultures were used only if they maintained a resistance >1000 W cm^2. Transepithelial resistance (an indication of cellular viability) was monitored throughout the entire duration of each electrophysiological experiment by pulsing the tissues with a 2000 μV pulse every 200 seconds. Resistance values were calculated from the resulting current deflections using Ohm's law.

“Also recorded” adds a separate entry of the source. Structures can show the parent of a compound that is named as a salt. Bridge positions count the residues as written; N and C are the ends. Ends that are not written are not given here.

Turning to “[arg]-vasopressin (CYFQNCPRG-NH2; disulfide 1-6; UniProt P01185 20-28, looked up) [ADH, antidiuretic hormone used to stimulate ion transport, reference compound]”, the “short circuit current response on stimulation” value with MDCK-C7 cells [1] (100 mU/ml, serosal bathing media, multiphasic response) is reported as “rapid increase in short circuit current”.
For the molecule `N=C(N)NC(=O)c1nc(Cl)c(N)nc1N` [amiloride, amiloride hydrochloride, reference compound], in the series on MDCK-C7 cells [1] (amiloride 30 μM, apical media, hydrochloride), the “later sustained SCC (ion transport) response to ADH” value is listed as “only blocks the later sustained SCC response; also recorded: decrease”.
On to `Cc1oc(-c2ccccc2)nc1CCOc1ccc(C[C@H](Nc2ccccc2C(=O)c2ccccc2)C(=O)O)cc1` [GI262570X, N-(2-benzoylphenyl)-O-[2-(5-methyl-2-phenyl-4-oxazolyl)ethyl]-L -tyrosine], for which the “cellular resistance of the monolayers” value in the series with MDCK-C7 cells [2] is recorded as below 500 ohm cm^2. Besides, the “effects on the other phases of the SCC response to ADH” value with MDCK-C7 cells [1] (100 nM or 1 μM, 18 hrs pre-incubation) is reported as “no significant effects”. For the same molecule, the “initial rapid transient SCC response to ADH” value is “significantly attenuated” with MDCK-C7 cells [1] (100 nM, n=4, p<0.05 vs controls) and “significantly attenuated” in the series with MDCK-C7 cells [1] (1 μM, n=4, p<0.01 vs controls). Moreover, the “effect on baseline SCC” value with MDCK-C7 cells [1] (-10 to 0 minutes, before ADH, 18 hrs pre-incubation) is “no compound-related effect”. For the same molecule, in the series with MDCK-C7 cells [1] (MDCK-C7 cells, summary statement), the “CFTR-mediated anion secretion in response to ADH stimulation” value was “decreased”. The “initial rapid transient response to ADH” value with MDCK-C7 cells [1] (over the concentration range of 1 nM - 1 μM) is “inhibited”.
In the case of `O=C(O)c1cc([N+](=O)[O-])ccc1NCCCc1ccccc1` [NPPB, reference compound], the “rapid transient ion transport response to ADH” value in the series on MDCK-C7 cells [1] (500 μM, added to apical bathing medium, 30 minutes before ADH) is given as “significantly diminish”.

Values taken from patent US7767682B2, “Medicaments” (GlaxoSmithKline LLC, priority 2005, dated 2010).
